From article PMC7156458, “Synthetic biology based construction of biological activity-related library of fungal decalin-containing diterpenoid pyrones” (Nature Communications, 2020)

Biological target: Aβ42 (Homo sapiens, UniProt P05067)
Assay: Th-T (thioflavin-T) assay of Aβ42 aggregation
Format: biochemical
Details: for Th-T fluorescence of Aβ42 (sheet Fig. 7a), mean of three wells: head suffix _50 (concentration 50); for Th-T assay plate reading, mean of three wells (Supplementary Fig. 47): source data, Ab alone and No Ab as controls; for Th-T fluorescence, mean of three wells: Supplementary Fig. 47 source data

Sequence of Aβ42 (P05067 672-713): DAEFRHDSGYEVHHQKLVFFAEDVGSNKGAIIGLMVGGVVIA

Compound: C=C1CCC2C(C)(CCC=C(C)C)C(O)CCC2(C)C1Cc1c(OC)oc(CO)c(C(=O)OC)c1=O (stereo not drawn) [Compound 13]
- Th-T fluorescence of Aβ42 (sheet Fig. 7a), mean of three wells (reading M73): 0.4729
- Th-T fluorescence of Aβ42 (sheet Fig. 7a), mean of three wells (reading M74): 0.4696
- Th-T fluorescence of Aβ42 (sheet Fig. 7a), mean of three wells (reading M75): 0.4709
- Th-T fluorescence of Aβ42 (sheet Fig. 7a), mean of three wells (reading M76): 0.4704
- Th-T fluorescence of Aβ42 (sheet Fig. 7a), mean of three wells (reading M77): 0.4733
- Th-T fluorescence of Aβ42 (sheet Fig. 7a), mean of three wells (reading M78): 0.4716
- Th-T fluorescence of Aβ42 (sheet Fig. 7a), mean of three wells (reading M79): 0.4696
- Th-T fluorescence of Aβ42 (sheet Fig. 7a), mean of three wells (reading M80): 0.4702
- Th-T fluorescence of Aβ42 (sheet Fig. 7a), mean of three wells (reading M81): 0.4727
- Th-T fluorescence of Aβ42 (sheet Fig. 7a), mean of three wells (reading M82): 0.4723
- Th-T fluorescence of Aβ42 (sheet Fig. 7a), mean of three wells (reading M83): 0.4714
- Th-T fluorescence of Aβ42 (sheet Fig. 7a), mean of three wells (reading M84): 0.4716
- Th-T assay plate reading, mean of three wells (Supplementary Fig. 47) (measurement M1): 0.2585
- Th-T assay plate reading, mean of three wells (Supplementary Fig. 47) (measurement M2): 0.2393
- Th-T assay plate reading, mean of three wells (Supplementary Fig. 47) (measurement M3): 0.2328
- Th-T assay plate reading, mean of three wells (Supplementary Fig. 47) (measurement M4): 0.2253
- Th-T assay plate reading, mean of three wells (Supplementary Fig. 47) (measurement M5): 0.2121
- Th-T assay plate reading, mean of three wells (Supplementary Fig. 47) (measurement M6): 0.2004
- Th-T assay plate reading, mean of three wells (Supplementary Fig. 47) (measurement M7): 0.1938
- Th-T assay plate reading, mean of three wells (Supplementary Fig. 47) (measurement M8): 0.1852
- Th-T assay plate reading, mean of three wells (Supplementary Fig. 47) (measurement M9): 0.1809
- Th-T assay plate reading, mean of three wells (Supplementary Fig. 47) (measurement M10): 0.1743
- Th-T assay plate reading, mean of three wells (Supplementary Fig. 47) (measurement M11): 0.1726
- Th-T assay plate reading, mean of three wells (Supplementary Fig. 47) (measurement M12): 0.1685
- Th-T assay plate reading, mean of three wells (Supplementary Fig. 47) (measurement M13): 0.1699
- Th-T assay plate reading, mean of three wells (Supplementary Fig. 47) (measurement M14): 0.1695
- Th-T assay plate reading, mean of three wells (Supplementary Fig. 47) (measurement M15): 0.1669
- Th-T assay plate reading, mean of three wells (Supplementary Fig. 47) (measurement M16): 0.1721
- Th-T fluorescence, mean of three wells (Fig. 7a) (reading M107, compound at 10 (head suffix _10)): 1.546
- Th-T fluorescence, mean of three wells (Fig. 7a) (reading M107, compound at 20 (head suffix _20)): 1.033
- Th-T fluorescence, mean of three wells (Fig. 7a) (reading M107, compound at 50 (head suffix _50)): 0.4755
- Th-T fluorescence, mean of three wells (Fig. 7a) (reading M108, compound at 10 (head suffix _10)): 1.544
- Th-T fluorescence, mean of three wells (Fig. 7a) (reading M108, compound at 20 (head suffix _20)): 1.036
- Th-T fluorescence, mean of three wells (Fig. 7a) (reading M108, compound at 50 (head suffix _50)): 0.4722
- Th-T fluorescence, mean of three wells (Fig. 7a) (reading M109, compound at 10 (head suffix _10)): 1.548
- Th-T fluorescence, mean of three wells (Fig. 7a) (reading M109, compound at 20 (head suffix _20)): 1.038
- Th-T fluorescence, mean of three wells (Fig. 7a) (reading M109, compound at 50 (head suffix _50)): 0.476
- Th-T fluorescence, mean of three wells (Fig. 7a) (reading M110, compound at 10 (head suffix _10)): 1.549
- Th-T fluorescence, mean of three wells (Fig. 7a) (reading M110, compound at 20 (head suffix _20)): 1.043
- Th-T fluorescence, mean of three wells (Fig. 7a) (reading M110, compound at 50 (head suffix _50)): 0.4785
- Th-T fluorescence, mean of three wells (Fig. 7a) (reading M111, compound at 10 (head suffix _10)): 1.553
- Th-T fluorescence, mean of three wells (Fig. 7a) (reading M111, compound at 20 (head suffix _20)): 1.041
- Th-T fluorescence, mean of three wells (Fig. 7a) (reading M111, compound at 50 (head suffix _50)): 0.4751
- Th-T fluorescence, mean of three wells (Fig. 7a) (reading M112, compound at 10 (head suffix _10)): 1.549
- Th-T fluorescence, mean of three wells (Fig. 7a) (reading M112, compound at 20 (head suffix _20)): 1.035
- Th-T fluorescence, mean of three wells (Fig. 7a) (reading M112, compound at 50 (head suffix _50)): 0.4724
- Th-T fluorescence, mean of three wells (Fig. 7a) (reading M113, compound at 10 (head suffix _10)): 1.549
- Th-T fluorescence, mean of three wells (Fig. 7a) (reading M113, compound at 20 (head suffix _20)): 1.03
- Th-T fluorescence, mean of three wells (Fig. 7a) (reading M113, compound at 50 (head suffix _50)): 0.473
- Th-T fluorescence, mean of three wells (Fig. 7a) (reading M114, compound at 10 (head suffix _10)): 1.5404
- Th-T fluorescence, mean of three wells (Fig. 7a) (reading M114, compound at 20 (head suffix _20)): 1.03
- Th-T fluorescence, mean of three wells (Fig. 7a) (reading M114, compound at 50 (head suffix _50)): 0.4728
- Th-T fluorescence, mean of three wells (Fig. 7a) (reading M115, compound at 10 (head suffix _10)): 1.549
- Th-T fluorescence, mean of three wells (Fig. 7a) (reading M115, compound at 20 (head suffix _20)): 1.033
- Th-T fluorescence, mean of three wells (Fig. 7a) (reading M115, compound at 50 (head suffix _50)): 0.477
- Th-T fluorescence, mean of three wells (Fig. 7a) (reading M116, compound at 10 (head suffix _10)): 1.546
- Th-T fluorescence, mean of three wells (Fig. 7a) (reading M116, compound at 20 (head suffix _20)): 1.033
- Th-T fluorescence, mean of three wells (Fig. 7a) (reading M116, compound at 50 (head suffix _50)): 0.4778
- Th-T fluorescence, mean of three wells (Fig. 7a) (reading M117, compound at 10 (head suffix _10)): 1.5424
- Th-T fluorescence, mean of three wells (Fig. 7a) (reading M117, compound at 20 (head suffix _20)): 1.029
- Th-T fluorescence, mean of three wells (Fig. 7a) (reading M117, compound at 50 (head suffix _50)): 0.4747
- Th-T fluorescence, mean of three wells (Fig. 7a) (reading M118, compound at 10 (head suffix _10)): 1.549
- Th-T fluorescence, mean of three wells (Fig. 7a) (reading M118, compound at 20 (head suffix _20)): 1.031
- Th-T fluorescence, mean of three wells (Fig. 7a) (reading M118, compound at 50 (head suffix _50)): 0.4759
- Th-T fluorescence, mean of three wells (Fig. 7a) (reading M119, compound at 10 (head suffix _10)): 1.551
- Th-T fluorescence, mean of three wells (Fig. 7a) (reading M119, compound at 20 (head suffix _20)): 1.035
- Th-T fluorescence, mean of three wells (Fig. 7a) (reading M119, compound at 50 (head suffix _50)): 0.4763
- Th-T fluorescence, mean of three wells (Fig. 7a) (reading M120, compound at 10 (head suffix _10)): 1.5465
- Th-T fluorescence, mean of three wells (Fig. 7a) (reading M120, compound at 20 (head suffix _20)): 1.04
- Th-T fluorescence, mean of three wells (Fig. 7a) (reading M120, compound at 50 (head suffix _50)): 0.4773
- Th-T fluorescence, mean of three wells (Fig. 7a) (reading M121, compound at 10 (head suffix _10)): 1.546
- Th-T fluorescence, mean of three wells (Fig. 7a) (reading M121, compound at 20 (head suffix _20)): 1.029
- Th-T fluorescence, mean of three wells (Fig. 7a) (reading M121, compound at 50 (head suffix _50)): 0.4753
- Th-T fluorescence, mean of three wells (Fig. 7a) (reading M122, compound at 10 (head suffix _10)): 1.544
- Th-T fluorescence, mean of three wells (Fig. 7a) (reading M122, compound at 20 (head suffix _20)): 1.028
- Th-T fluorescence, mean of three wells (Fig. 7a) (reading M122, compound at 50 (head suffix _50)): 0.4755
- Th-T fluorescence, mean of three wells (Fig. 7a) (reading M123, compound at 10 (head suffix _10)): 1.5409
- Th-T fluorescence, mean of three wells (Fig. 7a) (reading M123, compound at 20 (head suffix _20)): 1.032
- Th-T fluorescence, mean of three wells (Fig. 7a) (reading M123, compound at 50 (head suffix _50)): 0.4791
- Th-T fluorescence, mean of three wells (Fig. 7a) (reading M124, compound at 10 (head suffix _10)): 1.548
- Th-T fluorescence, mean of three wells (Fig. 7a) (reading M124, compound at 20 (head suffix _20)): 1.037
- Th-T fluorescence, mean of three wells (Fig. 7a) (reading M124, compound at 50 (head suffix _50)): 0.4785
- Th-T fluorescence, mean of three wells (Fig. 7a) (reading M125, compound at 10 (head suffix _10)): 1.541
- Th-T fluorescence, mean of three wells (Fig. 7a) (reading M125, compound at 20 (head suffix _20)): 1.031
- Th-T fluorescence, mean of three wells (Fig. 7a) (reading M125, compound at 50 (head suffix _50)): 0.4776
- Th-T fluorescence, mean of three wells (Fig. 7a) (reading M126, compound at 10 (head suffix _10)): 1.541
- Th-T fluorescence, mean of three wells (Fig. 7a) (reading M126, compound at 20 (head suffix _20)): 1.031
- Th-T fluorescence, mean of three wells (Fig. 7a) (reading M126, compound at 50 (head suffix _50)): 0.4736
- Th-T fluorescence, mean of three wells (Fig. 7a) (reading M127, compound at 10 (head suffix _10)): 1.546
- Th-T fluorescence, mean of three wells (Fig. 7a) (reading M127, compound at 20 (head suffix _20)): 1.033
- Th-T fluorescence, mean of three wells (Fig. 7a) (reading M127, compound at 50 (head suffix _50)): 0.4763
- Th-T fluorescence, mean of three wells (Fig. 7a) (reading M128, compound at 10 (head suffix _10)): 1.55
- Th-T fluorescence, mean of three wells (Fig. 7a) (reading M128, compound at 20 (head suffix _20)): 1.029
- Th-T fluorescence, mean of three wells (Fig. 7a) (reading M128, compound at 50 (head suffix _50)): 0.4748
- Th-T fluorescence, mean of three wells (time-course reading M97): 1.044
- Th-T fluorescence, mean of three wells (time-course reading M98): 1.046
- Th-T fluorescence, mean of three wells (time-course reading M99): 1.04
- Th-T fluorescence, mean of three wells (time-course reading M100): 1.04
- Th-T fluorescence, mean of three wells (time-course reading M101): 1.043
- Th-T fluorescence, mean of three wells (time-course reading M102): 1.042
- Th-T fluorescence, mean of three wells (time-course reading M103): 1.041
- Th-T fluorescence, mean of three wells (time-course reading M104): 1.042
- Th-T fluorescence, mean of three wells (time-course reading M105): 1.041
- Th-T fluorescence, mean of three wells (time-course reading M106): 1.044
- Th-T fluorescence, mean of three wells (time-course reading M107): 1.043
- Th-T fluorescence, mean of three wells (time-course reading M108): 1.038
- Th-T fluorescence, mean of three wells (time-course reading M109): 1.039
- Th-T fluorescence, mean of three wells (time-course reading M110): 1.044
- Th-T fluorescence, mean of three wells (time-course reading M111): 1.042
- Th-T fluorescence, mean of three wells (time-course reading M112): 1.039
- Th-T fluorescence, mean of three wells (time-course reading M113): 1.042
- Th-T fluorescence, mean of three wells (time-course reading M114): 1.037
- Th-T fluorescence, mean of three wells (time-course reading M115): 1.041
- Th-T fluorescence, mean of three wells (time-course reading M116): 1.037
